According to ChEMBL document CHEMBL1148999, “Antimalarial agents, 2. Artesunate, an inhibitor of cytochrome oxidase activity in Plasmodium berghei” (J Nat Prod, 1986):
Active and inactive are the calls of the source. The calls are words filed in the database; no cut-off is given here.

What was measured:
Plasmodium berghei [1] = assay: Inhibition of cytochrome oxidase in intraerythrocytic trophozoite of Plasmodium berghei infected CF1 mice (Mus musculus) at 100 mg/kg intravenous dose; type: functional, organism-based; design: dose 100 mg/kg
Plasmodium berghei [2] = assay: Inhibition of Plasmodium berghei trophozoite cytochrome oxidase after 30 min by osmium black staining
Plasmodium berghei [3] = assay: Inhibition of Plasmodium berghei trophozoite cytochrome oxidase at 100 nM after 30 min by osmium black staining
Plasmodium berghei [4] = assay: Inhibition of Plasmodium berghei trophozoite cytochrome oxidase at 1 mM after 30 min by osmium black staining

Question: How did the Activity (Plasmodium berghei [1]) turn out when `C[C@H]1[C@H](OC(=O)CCC(=O)O)O[C@@H]2O[C@@]3(C)CC[C@H]4[C@H](C)CC[C@@H]1[C@@]24OO3` was run?
Answer: Active

Question: What about the Activity (Plasmodium berghei [2]) of the same molecule?
Answer: Dose-dependent effect

Question: And the Activity (Plasmodium berghei [3])?
Answer: inactive

Question: And the Activity (Plasmodium berghei [4])?
Answer: Active
